From ChEMBL document CHEMBL1150847, “New lactone-containing metabolites from a marine-derived bacterium of the genus Streptomyces” (J Nat Prod, 2001)
The source made the active and inactive calls. The calls are words filed in the database; no cut-off is given here.

tested on: Candida albicans; test: Antifungal activity against Candida albicans by paper disk method; type: functional, organism-based

**Q.** `CCC(C)(O)CCCCCC1C=CC(=O)O1` (configuration not stated) was tested. Which Activity did it give?
**A.** The Activity was “Active”.

**Q.** `CCC(C)C[C@H]1C(=O)O[C@@H](C)[C@@H]1O` (some centres not stated) was tested. Which Activity did it give?
**A.** Its Activity is “Active”.

**Q.** How did the Activity turn out when `CC(C)CC[C@@H]1C(=O)O[C@@H](C)[C@@H]1O` was run?
**A.** The Activity was “Active”.

**Q.** With `CC(C)CC[C@H]1C(=O)O[C@@H](C)[C@@H]1O` as the molecule, how does the Activity read?
**A.** Its Activity is “Active”.

**Q.** With `CC(C)(O)CCCCCC1C=CC(=O)O1` (configuration not stated) as the molecule, how does the Activity read?
**A.** Its Activity is “Active”.

**Q.** How did the Activity turn out when `CC(=O)C(C)CCCCCC1C=CC(=O)O1` (configuration not stated) was run?
**A.** The Activity was “Active”.

**Q.** For `CCCC[C@H]1C(=O)O[C@@H](C)[C@@H]1O`, which Activity is on record?
**A.** The Activity was “Active”.
